# Results as given in US9156811B2 (priority 2008, dated 2015).
# Legend:
# [1] = target: T. brucei N-myristoyl transferase (Trypanosoma brucei brucei (strain 927/4 GUTat10.1), UniProt Q388H8); assay: biochemical; type: biochemical; settings: value printed without enzyme tag in the NMT Enzyme column (taken as T. brucei NMT); read-out: IC50 (μM) NMT Enzyme
# [2] = test system: Trypanosome (T. brucei brucei); assay: In-vitro antitrypanosomal efficacy assay (cell growth, resazurin); type: cell-based; settings: T. brucei cell growth
# Sequence of T. brucei N-myristoyl transferase (Q388H8 1-446): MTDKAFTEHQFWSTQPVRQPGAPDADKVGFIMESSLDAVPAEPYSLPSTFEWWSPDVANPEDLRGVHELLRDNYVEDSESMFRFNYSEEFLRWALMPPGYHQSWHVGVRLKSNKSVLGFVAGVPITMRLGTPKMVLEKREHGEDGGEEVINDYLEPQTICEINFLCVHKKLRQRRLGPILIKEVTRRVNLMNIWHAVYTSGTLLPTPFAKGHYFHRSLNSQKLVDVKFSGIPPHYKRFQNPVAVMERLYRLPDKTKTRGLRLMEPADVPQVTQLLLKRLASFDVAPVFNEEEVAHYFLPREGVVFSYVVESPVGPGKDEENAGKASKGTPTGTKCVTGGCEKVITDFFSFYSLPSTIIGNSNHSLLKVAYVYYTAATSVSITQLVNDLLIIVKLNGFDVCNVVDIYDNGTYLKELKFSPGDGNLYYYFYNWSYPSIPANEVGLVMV
Structure (SMILES),IC50 [1],ED50 (μM) T. brucei [2]
Cc1nn(C)c(C)c1N[S+](=O)([O-])c1ccc(C(C)C)cc1 [DDD71241],1.5 µM,>1 µM
CCC(C)c1ccc([S+](=O)([O-])Nc2c(C)nn(C)c2C)cc1 (stereo not shown) [DDD71242],4.3 µM,>1 µM
Cc1cc(C(C)(C)C)cc(C)c1[S+](=O)([O-])Nc1c(C)nn(C)c1C [DDD71243],0.5 µM,5.8 µM
Cc1nn(C)c(C)c1N[S+](=O)([O-])c1ccc2c(c1)CC(=O)N2 [DDD71244],15.9 µM,>1 µM
Cc1nn(C)c(C)c1N[S+](=O)([O-])c1ccccc1F [DDD71245],5.6 µM,>1 µM
Cc1nn(C)c(C)c1N[S+](=O)([O-])c1ccc2ccccc2c1 [DDD71246],8.4 µM,>1 µM
Cc1nn(C)c(C)c1N[S+](=O)([O-])c1ccc2c(c1)CCC(=O)N2 [DDD71247],3.4 µM,>1 µM
Cc1nn(C)c(C)c1N[S+](=O)([O-])c1ccc(N2CCOCC2)nc1 [DDD71274],2 µM,>1 µM
Cc1nn(C)c(C)c1N[S+](=O)([O-])c1ccc(C2OCCO2)cc1 [DDD71276],9.5 µM,>1 µM
COc1cc(C)c([S+](=O)([O-])Nc2cnc3ccccn23)c(C)c1C [DDD71277],95 µM,>1 µM
Cc1nc(-c2ccc([S+](=O)([O-])Nc3c(C)nn(C)c3C)cc2)cs1 [DDD71278],12.1 µM,>1 µM
COc1cc(C)c([S+](=O)([O-])Nc2ccncc2)c(C)c1C [DDD71280],> 100 µM,>1 µM
Cc1nn(C)c(C)c1N[S+](=O)([O-])c1ccc2c(c1)OCCN2C [DDD71281],16.1 µM,>1 µM
Cc1nn(C)c(C)c1N[S+](=O)([O-])c1ccc2c(c1)OCO2 [DDD71282],4 µM,>1 µM
Cc1nn(C)c(C)c1N[S+](=O)([O-])c1cccc2cccnc12 [DDD71283],7.4 µM,>1 µM
COc1cc(C)c([S+](=O)([O-])Nc2onc(C)c2C)c(C)c1C [DDD71284],> 100 µM,>1 µM
COc1cc(C)c([S+](=O)([O-])Nc2c(C)noc2C)c(C)c1C [DDD71285],19.3 µM,>1 µM
CC(=O)Nc1ccc([S+](=O)([O-])Nc2c(C)nn(C)c2C)cc1 [DDD71287],2.8 µM,>1 µM
COc1cc(C)c([S+](=O)([O-])Nc2cccnc2)c(C)c1C [DDD71288],> 100 µM,>1 µM
COc1ccc([S+](=O)([O-])Nc2c(C)nn(C)c2C)cc1OC [DDD71290],41 µM,>1 µM
COc1cc(C)c([S+](=O)([O-])Nc2ccccc2)c(C)c1C [DDD71292],> 100 µM,>1 µM
Cc1nn(C)c(C)c1N[S+](=O)([O-])Cc1ccccc1 [DDD71293],> 100 µM,>1 µM
Cc1nn(C)c(C)c1N[S+](=O)([O-])c1ccc(-n2cccn2)cc1 [DDD71294],4.8 µM,>1 µM
Cc1nn(C)c(C)c1N[S+](=O)([O-])c1ccc2c(c1)C(C)C(=O)N2 (stereo not shown) [DDD71637],11.7 µM,>1 µM
COc1cc(C)c([S+](=O)([O-])n2ccc(N)n2)c(C)c1C [DDD71644],> 100 µM,>1 µM
Cc1nn(C)c(C)c1N[S+](=O)([O-])c1sc2ccc(F)cc2c1C [DDD73221],6.6 µM,>1 µM

# Now from value to compound, other results behind:
IC50 [1],Structure (SMILES),ED50 (μM) T. brucei [2]
62.5 µM,Cc1nn(C)c(C)c1N[S+](=O)([O-])c1c(C)c(C)c(C)c(C)c1C [DDD71248],>1 µM
> 100 µM,Cc1ccc(C(C)(C)C)cc1[S+](=O)([O-])Nc1c(C)nn(C)c1C [DDD71251],>1 µM
17.4 µM,Cc1nn(C)c(C)c1N[S+](=O)([O-])c1ccc(Cl)c(C(F)(F)F)c1 [DDD71252],>1 µM
5.6 µM,Cc1nn(C)c(C)c1N[S+](=O)([O-])c1ccc2c(c1)CCC2 [DDD71253],>1 µM
62 µM,COc1ccc(OCCC[S+](=O)([O-])Nc2c(C)nn(C)c2C)cc1 [DDD71275],>1 µM
10 µM,COc1cc(C)c([S+](=O)([O-])Nc2cccnc2C)c(C)c1C [DDD71279],>1 µM
9.8 µM,COc1ccc([S+](=O)([O-])Nc2c(C)nn(C)c2C)cc1 [DDD71286],>1 µM
30 µM,COc1cc(C)c([S+](=O)([O-])Nc2ccncn2)c(C)c1C [DDD71295],>1 µM
> 100 µM,COc1cc(C)c([S+](=O)([O-])NCc2c(C)nn(C)c2C)c(C)c1C [DDD71296],>1 µM
10.5 µM,Cc1nn(C)c(C)c1N[S+](=O)([O-])c1ccc(-c2ccccc2)cc1 [DDD71297],>1 µM
9.9 µM,Cc1nn(C)c(C)c1N[S+](=O)([O-])c1ccc(Cl)c(Cl)c1 [DDD00071594],>1 µM
51 µM,COc1cc(C)c([S+](=O)([O-])N2CCCc3ncccc32)c(C)c1C [DDD71600],>1 µM
> 100 µM,COc1cc(C)c([S+](=O)([O-])Nc2c(C)n[nH]c2C)c(C)c1C [DDD71601],>1 µM
> 100 µM,Cc1nn(C)c(C)c1N[S+](=O)([O-])c1ccc([S+](=O)([O-])N2CCCC2)cc1 [DDD71607],>1 µM
> 100 µM,Cc1cc(C(=O)O)cc([S+](=O)([O-])Nc2c(C)nn(C)c2C)c1C [DDD71608],>1 µM
41 µM,COc1ccc([S+](=O)([O-])Nc2c(C)nn(C)c2C)cc1NC(C)=O [DDD71622],>1 µM
42 µM,COc1cc([S+](=O)([O-])Nc2c(C)nn(C)c2C)ccc1NC(C)=O [DDD71623],>1 µM
> 100 µM,COc1cc(C)c([S+](=O)([O-])Nc2cc[nH]n2)c(C)c1C [DDD71630],>1 µM
> 100 µM,COc1cc(C)c([S+](=O)([O-])Nc2c(C)cc(C)cc2C)c(C)c1C [DDD71645],>1 µM
69 µM,CC(=O)Nc1cc(C)c([S+](=O)([O-])Nc2c(C)nn(C)c2C)s1 [DDD73219],>1 µM
1 µM,Cc1nn(C)c(C)c1N[S+](=O)([O-])c1ccc(NCCCO)nc1 [DDD73222],>1 µM
> 100 µM,Cc1nn(C)c(C)c1N[S+](=O)([O-])c1ccc(CN2CCNC(=O)C2)cc1 [DDD73225],>1 µM
> 100 µM,Cc1nn(C)c(C)c1N[S+](=O)([O-])c1ccc(CN2CCCCC2)cc1 [DDD73226],>1 µM
0.9 µM,Cc1nn(C)c(C)c1N[S+](=O)([O-])c1ccc(N2CCc3ccccc3C2)nc1 [DDD73227],8.1 µM
